Test results: patent publication US7847152B2, “Use of tryptophan indole and anthranilate analogs as plant transformation selection agents” (The Board of Trustees of the University of Illinois, priority 2006, dated 2010)

How the values were obtained:
Format in all cases: biochemical, Nicotiana tabacum
[1] = test system: anthranilate synthase (AS) holoenzyme of WT tobacco; assay: AS holoenzyme activity, inhibition by Trp, wild type (10 mM Gln as amino donor)
Experimental: (§1) Approximately 2 g of leaves was homogenized with 1.5 volume of ice-cold extraction buffer as described in Bernasconi et al., (1994). The homogenate was centrifuged at 30,000 g at 4° C. for 10 min. The supernatant was desalted using a Econo-Pac 10 DG column (Bio-Rad, Hercules, Calif.). Protein concentration was determined using a protein dye-binding assay kit (Bio-Rad, Hercules, Calif.). The supernatant was combined with two volumes of assay buffer as described previously (Bernasconi et al., 1994) but without NH4Cl. AS enzyme activity was measured as the conversion rate of chorismate to anthranilate as described previously (Song et al., 1998). Either 100 mM NH4Cl or 10 mM glutamine was added to the assay mixture to determine α-subunit activity or AS holoenzyme activity respectively and Trp at different concentrations. Duplicate extracts of each line were analyzed.

[2] = test system: AS holoenzyme of ASA2 transgenic tobacco lines; assay: AS holoenzyme activity, inhibition by Trp, ASA2 transgenic lines (10 mM Gln); conditions: 300 μM Trp, pC2ASA2 lines
Experimental: as §1

[3] = test system: AS α subunit of WT tobacco; assay: AS α subunit activity, inhibition by Trp, wild type (100 mM NH4Cl as amino donor); conditions: 10 μm Trp, Example 6
Experimental: as §1

[4] = test system: AS α subunit (feedback insensitive ASA2) of transgenic tobacco lines; assay: AS α subunit activity, inhibition by Trp, ASA2 transgenic lines (100 mM NH4Cl); conditions: 300 μM Trp, pC2ASA2 lines
Experimental: as §1

N[C@@H](Cc1c[nH]c2ccccc12)C(=O)O [Trp, tryptophan]
WT relative holoenzyme activity ([1]; 300 μM Trp, Example 9): almost completely inhibited
WT AS holoenzyme activity ([1]; 10 μm Trp, Example 6): almost completely inhibited
holoenzyme activity retained by line #6 and line #7 [2]: about 40%
WT AS α subunit activity [3]: almost completely inhibited
α-subunit activity retained by line #6 and line #7 [4]: about 40%
